Laboratory results as given in article PMC8360061, “Search for the Active Ingredients from a 2‐Aminothiazole DMSO Stock Solution with Antimalarial Activity” (Chemmedchem, 2021).
Entries after “also recorded” stand apart in the source; their conditions may differ.

Key:
[1] = target: PK/LDH (pyruvate kinase and lactate dehydrogenase); assay: PK/LDH auxiliary enzyme assay; assay type: biochemical
Protocol: Firstly, we performed a temperature‐dependent decomposition study of compound 1 at 10 mM concentration in DMSO at room temperature (RT), +4 °C and −20 °C (SI, Section 2.3). […] Besides visual inspection of the colour changes of the test sample (see Table 2), the decomposition was monitored by HRMS and NMR spectroscopy. […] Furthermore, all three samples were tested for their inhibitory activity against PfIspE after the incubation period. […] In the IspE assay, the activity of the target enzyme is coupled to the oxidation of NADH (which can be followed spectrophotometrically at 340 nm) via a cascade of the auxiliary enzymes pyruvate kinase and lactate dehydrogenase (PK/LDH).[10] […] Three samples of compound 1 were tested in PK/LDH assay (Table 2).
1.1 General Procedure for Enzymatic Assay
The cloning, expression and purification of Plasmodium falciparum[1] and Escherichia coli[2,3] and their subsequent assays followed the previously reported procedures .[1] In some specified cases, the tested compound was dissolved in methanol or acetonitrile for the assay .
(§1) Due to the nature of the study, some decomposition samples w ere only tested once and thus, for some formal standard error, […]
(§2) For the final purified compounds, replicates were measured and standard deviation was calculated at least from two replicates. […]
2.) Decomposition Study Procedure
All reagents and solvents were of commercial quality and used without further purification.
Low resolution mass analytics and purity controls were carried out using an Ultimate 3000-ISQ liquid-chromatography mass spectrometry (LCMS) system (Thermo Fisher Scientific, Dreieich, Germany) consisting of a Dionex UltiMate pump, an autosampler, DAD detector and an ESI quadrupole mass spectrometer. NMR spectra were recorded on a Bruker AV 500 or Ascend 700 (1H, 500 MHz or 700 MHz; 13C, 126 MHz or 175 MHz; 19F, 470 MHz) spectrometer. All spectra were measured in DMSO -d6, methanol-d4, acetone-d6 or acetonitrile-d3 to which reported

HEK293 = assay: Cytotoxicity assay HEK293; assay type: cell-based; conditions: Homo sapiens, old sample before becoming aware of the decomposition, read-out: %-inh. HEK293
Protocol: as §1, §2
1.3 General Procedure for Cytotoxicity Assay
Cytotoxicity assays based on the human lung adenocarcinoma (A549), human embryonic kidney (Hek293) and human hepatocellular carcinoma (HepG2) cell lines were performed as described previously.[7] […]

[2] = Decomposition study of stock solutions (HRMS, NMR); assay type: physicochemical
Protocol: Firstly, we performed a temperature‐dependent decomposition study of compound 1 at 10 mM concentration in DMSO at room temperature (RT), +4 °C and −20 °C (SI, Section 2.3). After seven days, 64 % of the sample stored at RT had decomposed (SI, Table S1). Besides visual inspection of the colour changes of the test sample (see Table 2), the decomposition was monitored by HRMS and NMR spectroscopy. […] Furthermore, all three samples were tested for their inhibitory activity against PfIspE after the incubation period. […] This fact correlated with the degree of chemical transformation of compound 1 (Table S1). In the IspE assay, the activity of the target enzyme is coupled to the oxidation of NADH (which can be followed spectrophotometrically at 340 nm) via a cascade of the auxiliary enzymes pyruvate kinase and lactate dehydrogenase (PK/LDH).[10] Therefore, we next confirmed, whether the effects observed in the IspE assay are due to inhibition of the target enzyme or of the auxiliary enzymes. Three samples of compound 1 were tested in PK/LDH assay (Table 2).
Secondly, we analysed if spontaneous chemical transformation of compound 1 may depend on the solvent used for the preparation of its stock solutions. We incubated 10 mM stock preparations of compound 1 in DMSO, acetonitrile (ACN) and methanol (MeOH) at RT. Aliquots were taken during 16 days of incubation and tested against the enzyme PfIspE (Table 3). […] For further decomposition incubation of compound 1, only DMSO was used as solvent.
2.3 Temperature-Dependent Study
Compound 1 was dissolved in DMSO to afford 10 mM stock solution, in the scale of 3.65 mg in 1 mL. Three aliquots were prepared and one each was stored inside a light -protecting box at different temperatures: room temperature (RT), +4 °C and –20 °C. Samples were only taken to RT for the minimum time required for sampling. Samples were further d iluted with acetonitrile to 10 µM (1:1000) for HRMS analysis. For calibration, a fresh stock solution of the compound 1 was prepared shortly before the analysis. The concentration range used for the calibration was from 10 µM to 20 nM, including 10 samples with 1:1 dilutions starting from the highest concentration (Appendix I). In all of the calibration points and samples, diphenhydramine ( m/z: 256.16907 [M+H]+) was included as an internal standard at the concentration of 500 nM. The results were analysed using Thermo Xcalibur Quan Browser. Similarly, three NMR samples of compound 1 were prepared in DMSO-d6 and each stored at different temperatures; RT, +4 °C and –20 °C, (Figure S8).
Table S1. Summary of the decomposition of compound 1 at different temperatures with the corresponding enzymatic activities measured after three months.
The Percentage of Compound 1 Left After Degradation after 3 months of decomposition[b] Temperature Day 7 1 month 2 months PfIspE IC50 EcIspE IC50 PK/LDH IC50 […]
[a] [b] Errors given as formal standard error. n.d.: not determined, PK/LDH: pyruvate kinase and lactate dehydrogenase, Pf: Plasmodium falciparum, Ec: Escherichia coli.
Figure S7. The HRMS recorded for the samples submitted to the enzyme assay after 3 months of decomposition with the corresponding colour differences. […]
2.4 Solvent-Dependent Study
As in the Section 2.3, stock solutions of compound 1 were prepared in DMSO, ACN and MeOH and stored at RT for 16 days in a box protected from light . Samples were collected during this time and the enzymatic activity was analysed for them as in main text, Table […]
compound 1 for ACN or MeOH was detectible (Figures S11–12). Similarly, the old samples of compound 1 used for enzyme and cell assays were analysed with HRMS (Figure S13). Additionally, NMR sample in MeOH was prepared and measured over time while stored at RT. As a follow-up experiment, the stability of compound 1 was determined for its 10 mM stock solution in Tris-HCl (pH 7.6) with and without 5% DMSO and Cyrene™ with HRMS (Figure S16–18). […]

CCn1c(C)cc(-c2csc(Nc3ccccc3C(F)(F)F)n2)c1C [Compound 1]
IC50 ([1]; 10 mM DMSO stock stored at +4 °C, measured after 3 months): 45 ± 6 µM
IC50 ([1]; 10 mM DMSO stock stored at RT, measured after 3 months): 34 ± 4 µM
IC50 ([1]; 10 mM stock in DMSO at RT, 7 days of incubation): 48 ± 16 µM
IC50 ([1]; 10 mM stock in DMSO at RT, 9 days of incubation): 57 ± 22 µM
IC50 ([1]; 10 mM stock in DMSO at RT, 12 days of incubation): 2 ± 1 µM
IC50 ([1]; 10 mM stock in DMSO at RT, 14 days of incubation): 50 ± 11 µM
IC50 ([1]; 10 mM stock in DMSO at RT, 16 days of incubation): 86 ± 17 µM
IC50 ([1]; analytical sample, DMSO at RT, 4 days of incubation, dissolved in methanol shortly before the assay): 95 ± 21 µM
IC50 ([1]; old decomposed sample, control run at the same time as the temperature study): 40 ± 4 µM
inhibition at 100 µM (HEK293): 28%
Degradation after 2 months ([2]; 10 mM in DMSO, +4 °C): 79%
Percentage of Compound 1 Left After Degradation ([2]; 10 mM in DMSO, +4 °C, 1 month): 48%
Percentage of Compound 1 Left After Degradation ([2]; 10 mM in DMSO, +4 °C, 2 months): 21%
Percentage of Compound 1 Left After Degradation ([2]; 10 mM in DMSO, +4 °C, Day 7): 96%
Degradation after 2 months ([2]; 10 mM in DMSO, RT): 100%
decomposition after two weeks (in words) ([2]; 10 mM in DMSO, RT): fully decomposed
share of sample decomposed after seven days ([2]; 10 mM in DMSO, RT): 64%
Percentage of Compound 1 Left After Degradation ([2]; 10 mM in DMSO, RT, 1 month): 1%
Percentage of Compound 1 Left After Degradation ([2]; 10 mM in DMSO, RT, 2 months): 0%
Percentage of Compound 1 Left After Degradation ([2]; 10 mM in DMSO, RT, Day 7): 36%
Degradation after 2 months ([2]; 10 mM in DMSO, −20 °C): 18%
Percentage of Compound 1 Left After Degradation ([2]; 10 mM in DMSO, −20 °C, 1 month): 91%
Percentage of Compound 1 Left After Degradation ([2]; 10 mM in DMSO, −20 °C, 2 months): 82%
Percentage of Compound 1 Left After Degradation ([2]; 10 mM in DMSO, −20 °C, Day 7): 96%
decomposition at −20 °C (in words) ([2]; 10 mM in DMSO, −20 °C, up to two months): decomposition hardly occurs; also recorded: only minimal decomposition
decomposition in Cyrene (HRMS, in words) ([2]; 10 mM stock in Cyrene, RT, after one day): clear decomposition
decomposition in ACN (HRMS, in words) ([2]; stock solution in ACN at RT for 16 days): no decomposition
decomposition in MeOH (HRMS, in words) ([2]; stock solution in MeOH at RT for 16 days): no decomposition
